From patent US12576099B2, “Ribose-modified cap analog and use thereof” (Beijing Youcare Kechuang Pharmaceutical Technology Co., Ltd., priority 2024, dated 2026)

How the values were obtained:
[1] = Characterization of lipid nanoparticles encapsulating Fluc-mRNA prepared from different cap structures; assay type: physicochemical; conditions: for Particle size: LNP (YK-009/DSPC/cholesterol/DMG-PEG2000) with Fluc-mRNA transcribed using the named cap analog; for PDI: LNP with Fluc-mRNA transcribed using the named cap analog; for EE: encapsulation efficiency of LNP with Fluc-mRNA transcribed using the named cap analog
How it was run: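 LNPs of YK-009/DSPC/cholesterol/DMG-PEG2000 (49:10:39.5:1.5) made by microfluidic mixing with Fluc-mRNA in 50 mM citrate pH 4, lipid:mRNA ~15:1 w/w, then ultrafiltered into PBS and 0.2 μm filtered. Size and PDI by DLS (90°, 25 °C, triplicate); encapsulation efficiency by RiboGreen assay.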

[2] = target: T1, DCP2 enzyme (Schizosaccharomyces pombe, UniProt O13828); assay: Decapping enzyme stability test; assay type: biochemical; conditions: for Decapping rate (%) of DCP2 enzyme: 50 U mRNA decapping enzyme, 37° C., 45 minutes
T1 construct: purchased New England Biolabs
T1 sequence (O13828 1-243 limits assumed): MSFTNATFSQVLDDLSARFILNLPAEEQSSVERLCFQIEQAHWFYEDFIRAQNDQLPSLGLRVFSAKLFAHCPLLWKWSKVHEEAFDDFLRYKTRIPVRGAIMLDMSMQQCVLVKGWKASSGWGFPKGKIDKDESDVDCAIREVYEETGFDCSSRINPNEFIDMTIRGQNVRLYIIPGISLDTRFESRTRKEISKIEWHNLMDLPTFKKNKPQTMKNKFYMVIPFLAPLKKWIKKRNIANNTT
T1 sequence (Q9P805 1-127 partner): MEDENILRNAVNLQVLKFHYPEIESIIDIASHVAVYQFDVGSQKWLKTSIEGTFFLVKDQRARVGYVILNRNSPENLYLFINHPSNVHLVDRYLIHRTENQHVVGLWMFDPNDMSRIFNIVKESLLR
T1 sequence (Q10108 155-180 partner limits assumed): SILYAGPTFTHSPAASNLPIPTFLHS
How it was run: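 PAGE-purified RNA ([…]) incubated with 50 U mRNA decapping enzyme in 1×MDE buffer at 37° C. for 45 minutes. Products resolved by PAGE, SYBR Green II stained; decapping rate derived from capped-to-decapped band intensity ratio.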

[3] = test system: BALB/C mice; assay: In vivo imaging of Fluc-mRNA LNP expression in mice; conditions: for Total radiation intensity: 5 μg Fluc-mRNA LNP intramuscular, mice
Description: The LNP preparation containing 5 μg of cap analog-transcribed Fluc-mRNA was intramuscularly injected into female BALB/C mice aged 4 to 6 weeks and weighing 17 to 19 g. At specific time points after administration (6 hours, 12 hours, 24 hours, 48 hours, 96 hours, and 168 hours), the mice were intraperitoneally injected with fluorescence imaging substrate. The mice were then allowed to move freely for 5 minutes, followed by detection of the total radiation intensity of the protein expressed by LNP-carrying mRNA in the mice using an IVIS Spectrum small-animal in vivo imaging system (corresponding to the amount of protein expression).
In the in vivo imaging experiments in mice, the multiple of the total radiation intensity for each group of mice relative to the m6A group is shown in Table 8 (where the total radiation intensity is represented as the given value×10^8 p/s).

[4] = target: T7 RNA polymerase (Escherichia phage T7, UniProt P00573); assay: In vitro transcription yield of mRNA using cap analogs; assay type: biochemical; conditions: for Yield per unit template: in vitro transcription, 1 μg DNA template, 37° C., 2 hours
Chain of T7 RNA polymerase (P00573 whole entry): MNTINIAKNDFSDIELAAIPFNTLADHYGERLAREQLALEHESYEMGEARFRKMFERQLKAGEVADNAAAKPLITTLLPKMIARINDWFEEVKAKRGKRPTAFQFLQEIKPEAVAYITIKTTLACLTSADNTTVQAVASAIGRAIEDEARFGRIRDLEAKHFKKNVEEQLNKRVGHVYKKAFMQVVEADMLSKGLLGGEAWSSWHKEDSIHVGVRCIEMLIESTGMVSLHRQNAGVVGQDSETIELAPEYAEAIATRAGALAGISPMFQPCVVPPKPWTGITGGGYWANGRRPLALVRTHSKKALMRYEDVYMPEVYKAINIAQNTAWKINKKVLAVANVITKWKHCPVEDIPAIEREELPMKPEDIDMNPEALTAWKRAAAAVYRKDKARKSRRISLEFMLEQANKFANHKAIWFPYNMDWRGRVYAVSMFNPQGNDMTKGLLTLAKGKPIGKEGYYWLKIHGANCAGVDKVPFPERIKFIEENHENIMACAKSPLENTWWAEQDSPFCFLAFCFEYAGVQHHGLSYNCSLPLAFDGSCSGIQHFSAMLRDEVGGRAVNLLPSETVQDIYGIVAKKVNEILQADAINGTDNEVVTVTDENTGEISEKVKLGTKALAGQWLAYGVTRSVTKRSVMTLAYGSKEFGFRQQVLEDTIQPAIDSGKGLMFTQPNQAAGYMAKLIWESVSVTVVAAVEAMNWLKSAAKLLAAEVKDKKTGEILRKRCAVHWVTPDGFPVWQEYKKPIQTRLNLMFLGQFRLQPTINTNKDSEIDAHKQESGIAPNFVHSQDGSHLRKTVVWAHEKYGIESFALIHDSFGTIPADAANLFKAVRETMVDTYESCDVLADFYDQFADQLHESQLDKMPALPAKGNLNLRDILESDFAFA
Description: • (1) Capping synthesis using cap analogs
The plasmid was first linearized with plasmid linearizing enzyme, and then the linearized plasmid was purified. • (2) In vitro transcription and synthesis of mRNA
During the experiment, the volume of materials required for the system was first calculated, and then sample addition was conducted. The system was first added with sterile enzyme-free water, followed by the sequential addition of 10× buffer, NTPs, and cap analogs, mixed well, and gently centrifuged. Nuclease inhibitors, inorganic pyrophosphatase, T7RNA polymerase, and linearized DNA templates were then added thereto. The system was mixed well, gently centrifuged, and incubated at 37° C. After 2 hours of incubation, the system was added with 1 U of DNase I and incubated at 37° C. for another 30 minutes. The mRNA precipitate was then washed with 75% ethanol, and after the ethanol was briefly evaporated to dryness, the mRNA was redissolved in sterile enzyme-free water. • (3) The transcription product was purified, and the in vitro transcription yield of mRNA was recorded. • (4) The obtained mRNA was subjected to an annealing reaction with a probe.

Compound	Particle size [1] [nm]	PDI [1]	EE [1] [%]	Decapping rate (%) of DCP2 enzyme [2] [%]	Decrease relative to N-7113 (decapping rate) [2] [%]	Multiple of total radiation intensity relative to m6A ([3]; 6 h)	Total radiation intensity ([3]; 6 h)	Multiple of total radiation intensity relative to m6A ([3]; 12 h)	Total radiation intensity ([3]; 12 h)	Multiple of total radiation intensity relative to m6A ([3]; 24 h)	Total radiation intensity ([3]; 24 h)	Multiple of total radiation intensity relative to m6A ([3]; 48 h)	Total radiation intensity ([3]; 48 h)	Multiple of total radiation intensity relative to m6A ([3]; 96 h)	Total radiation intensity ([3]; 96 h)	Total radiation intensity ([3]; 168 h)	Yield per unit template [4] [µg]	Increase relative to 5227 (in vitro transcription yield) [4] [%]	also measured
CO[C@@H]1[C@H](OP(=O)(O)OC[C@H]2O[C@@H](n3cnc4c(=O)[nH]c(N)nc43)[C@H](O)[C@@H]2O)[C@@H](COP(=O)(O)OP(=O)(O)OP(=O)(O)OC[C@H]2O[C@@H]([n+]3cn(C)c4c(=O)[nH]c(N)nc43)[C@H](O)[C@@H]2C(C)F)O[C@H]1n1cnc2c(N)ncnc21 (some centres unmarked) [YK-CAP-109]	86.35	0.035	97.2	17.3	26.5	2.6	6.04 ×108 p/s	2.8	5.84 ×108 p/s	2.8	1.85 ×108 p/s	1.0	0.54 ×108 p/s	2.7	0.14 ×108 p/s	0.03 ×108 p/s	168.1	25.3	–
CO[C@@H]1[C@H](OP(=O)(O)OC[C@H]2O[C@@H](n3cnc4c(=O)[nH]c(N)nc43)[C@H](O)[C@@H]2O)[C@@H](COP(=O)(O)OP(=O)(O)OP(=O)(O)OC[C@H]2O[C@@H]([n+]3cn(C)c4c(=O)[nH]c(N)nc43)[C@H](O)[C@@H]2C(C)NC(C)=O)O[C@H]1n1cnc2c(N)ncnc21 (some centres unmarked) [YK-CAP-108]	83.13	0.023	96.4	16.3	27.5	2.7	6.42 ×108 p/s	2.8	6.03 ×108 p/s	2.6	1.70 ×108 p/s	2.0	1.04 ×108 p/s	1.3	0.19 ×108 p/s	0.02 ×108 p/s	151.8	13.1	–
CO[C@@H]1[C@H](OP(=O)(O)OC[C@H]2O[C@@H](n3cnc4c(=O)[nH]c(N)nc43)[C@H](O)[C@@H]2O)[C@@H](COP(=O)(O)OP(=O)(O)OP(=O)(O)OC[C@@]2(OC)O[C@@H]([n+]3cn(C)c4c(=O)[nH]c(N)nc43)[C@H](O)[C@@H]2O)O[C@H]1n1cnc2c(N)ncnc21 [compound 5227, reference compound]	83.34	0.028	94.9	23.2	20.6	1.0	2.38 ×108 p/s	0.7	1.45 ×108 p/s	0.8	0.53 ×108 p/s	0.9	0.48 ×108 p/s	0.9	0.07 ×108 p/s	0.02 ×108 p/s	134.2	0	–
COC[C@@H]1[C@H](OP(=O)(O)OC[C@H]2O[C@@H](n3cnc4c(=O)[nH]c(N)nc43)[C@H](O)[C@@H]2O)[C@@H](COP(=O)(O)OP(=O)(O)OP(=O)(O)OC[C@H]2O[C@@H]([n+]3cn(C)c4c(=O)[nH]c(N)nc43)[C@H](O)[C@@H]2O)O[C@H]1n1cnc2c(N)ncnc21 [YK-CAP-113]	79.34	0.043	96.1	15.3	28.5	2.6	6.07 ×108 p/s	3.6	7.63 ×108 p/s	3.1	2.02 ×108 p/s	2.5	1.29 ×108 p/s	1.2	0.31 ×108 p/s	0.04 ×108 p/s	166.1	23.8	–
COC(C)[C@H]1[C@@H](O)[C@H]([n+]2cn(C)c3c(=O)[nH]c(N)nc32)O[C@@H]1COP(=O)(O)OP(=O)(O)OP(=O)(O)OC[C@H]1O[C@@H](n2cnc3c(N)ncnc32)[C@H](OC)[C@@H]1OP(=O)(O)OC[C@H]1O[C@@H](n2cnc3c(=O)[nH]c(N)nc32)[C@H](O)[C@@H]1O (some centres unmarked) [YK-CAP-107]	78.42	0.053	96.3	11.5	32.3	3.4	8.09 ×108 p/s	3.2	6.87 ×108 p/s	2.9	1.92 ×108 p/s	1.2	0.60 ×108 p/s	2.5	0.11 ×108 p/s	0.03 ×108 p/s	170.7	27.2	–
COC[C@]1(COP(=O)(O)OP(=O)(O)OP(=O)(O)OC[C@H]2O[C@@H](n3cnc4c(N)ncnc43)[C@H](OC)[C@@H]2OP(=O)(O)OC[C@H]2O[C@@H](n3cnc4c(=O)[nH]c(N)nc43)[C@H](O)[C@@H]2O)O[C@@H]([n+]2cn(C)c3c(=O)[nH]c(N)nc32)[C@H](O)[C@@H]1O [YK-CAP-117]	72.56	0.044	94.3	9.8	34.0	3.8	8.99 ×108 p/s	3.8	8.00 ×108 p/s	3.2	2.08 ×108 p/s	3.3	1.73 ×108 p/s	0.9	0.35 ×108 p/s	0.02 ×108 p/s	153.2	14.2	Decapping rate lower than that of HN3002 ([2]; relative to HN3002): 13.5%; Decapping rate lower than that of YK-CAP-101 ([2]; relative to YK-CAP-101): 22.6%; Decapping rate lower than that of YK-CAP-102 ([2]; relative to YK-CAP-102): 31.4%; Decapping rate lower than that of YK-CAP-103 ([2]; relative to YK-CAP-103): 26.7%; Decapping rate lower than that of YK-CAP-104 ([2]; relative to YK-CAP-104): 36.3%; Decapping rate lower than that of YK-CAP-105 ([2]; relative to YK-CAP-105): 24.1%; Decapping rate lower than that of compound 14 ([2]; relative to compound 14): 17.0%; Decapping rate lower than that of m6A ([2]; relative to m6A): 24.0%
